The text below walks through data of patent publication US9321773B2, “Compounds” (Respivert Ltd, priority 2009, dated 2016).

The target of one series is recombinant PI3 kinase δ (Homo sapiens (Human), UniProt O00329). Put plainly: Enzyme Inhibition Assay (HTRF PI3K enzyme assay, TR-FRET). The series is classed as biochemical. From the text: (§1) PI3 kinases catalyse the phosphorylation of phosphatidylinositol 4,5-biphosphate (PIP2) to phosphatidylinositol 3,4,5-triphosphate (PIP3) in the presence of ATP and Mg^2+ ions. The PIP3 product can be detected by displacement of biotin-PIP3 from energy transfer complexes consisting of europium labelled anti-GST monoclonal antibody, a GST-tagged Pleckstrin homology (PH) domain, biotinylated PIP3 and streptavidin-allophycocyanin (APC) by the time-resolved fluorescence resonance energy transfer (TR-FRET) (HTRF® PI3K enzyme assay, Millipore). […] The PIP3 product formed by PI3K activity displaces biotin-PIP3 from the complex and results in a loss of energy transfer (decreasing signal).
recombinant PI3 kinase δ, sequence (O00329 whole entry): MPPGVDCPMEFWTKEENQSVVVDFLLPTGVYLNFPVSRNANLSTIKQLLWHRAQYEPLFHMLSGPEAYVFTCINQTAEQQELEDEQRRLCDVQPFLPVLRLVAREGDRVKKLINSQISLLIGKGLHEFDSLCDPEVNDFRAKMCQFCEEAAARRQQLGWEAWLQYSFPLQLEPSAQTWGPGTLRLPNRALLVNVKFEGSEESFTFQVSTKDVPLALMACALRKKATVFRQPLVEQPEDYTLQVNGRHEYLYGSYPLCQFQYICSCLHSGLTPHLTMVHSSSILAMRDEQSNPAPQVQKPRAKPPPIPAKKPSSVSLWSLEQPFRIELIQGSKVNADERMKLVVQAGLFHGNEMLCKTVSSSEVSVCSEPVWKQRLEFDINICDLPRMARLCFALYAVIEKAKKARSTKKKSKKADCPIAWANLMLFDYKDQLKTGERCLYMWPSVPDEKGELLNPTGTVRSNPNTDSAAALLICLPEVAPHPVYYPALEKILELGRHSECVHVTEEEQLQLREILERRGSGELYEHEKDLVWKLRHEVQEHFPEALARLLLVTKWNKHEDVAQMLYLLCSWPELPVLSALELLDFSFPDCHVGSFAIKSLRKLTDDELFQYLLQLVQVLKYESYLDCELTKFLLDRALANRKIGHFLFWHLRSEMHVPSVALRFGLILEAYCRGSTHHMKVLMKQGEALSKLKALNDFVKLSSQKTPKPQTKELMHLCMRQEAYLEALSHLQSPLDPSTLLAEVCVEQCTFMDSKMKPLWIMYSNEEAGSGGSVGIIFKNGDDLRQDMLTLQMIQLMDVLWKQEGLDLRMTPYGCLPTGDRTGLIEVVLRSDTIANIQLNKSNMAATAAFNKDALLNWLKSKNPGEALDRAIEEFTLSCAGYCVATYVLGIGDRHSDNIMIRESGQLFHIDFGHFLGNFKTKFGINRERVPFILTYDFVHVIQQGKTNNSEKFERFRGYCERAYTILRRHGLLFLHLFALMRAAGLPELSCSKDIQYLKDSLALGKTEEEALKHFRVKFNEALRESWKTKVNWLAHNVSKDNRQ
recombinant PI3 kinase δ, sequence (P27986 whole entry partner): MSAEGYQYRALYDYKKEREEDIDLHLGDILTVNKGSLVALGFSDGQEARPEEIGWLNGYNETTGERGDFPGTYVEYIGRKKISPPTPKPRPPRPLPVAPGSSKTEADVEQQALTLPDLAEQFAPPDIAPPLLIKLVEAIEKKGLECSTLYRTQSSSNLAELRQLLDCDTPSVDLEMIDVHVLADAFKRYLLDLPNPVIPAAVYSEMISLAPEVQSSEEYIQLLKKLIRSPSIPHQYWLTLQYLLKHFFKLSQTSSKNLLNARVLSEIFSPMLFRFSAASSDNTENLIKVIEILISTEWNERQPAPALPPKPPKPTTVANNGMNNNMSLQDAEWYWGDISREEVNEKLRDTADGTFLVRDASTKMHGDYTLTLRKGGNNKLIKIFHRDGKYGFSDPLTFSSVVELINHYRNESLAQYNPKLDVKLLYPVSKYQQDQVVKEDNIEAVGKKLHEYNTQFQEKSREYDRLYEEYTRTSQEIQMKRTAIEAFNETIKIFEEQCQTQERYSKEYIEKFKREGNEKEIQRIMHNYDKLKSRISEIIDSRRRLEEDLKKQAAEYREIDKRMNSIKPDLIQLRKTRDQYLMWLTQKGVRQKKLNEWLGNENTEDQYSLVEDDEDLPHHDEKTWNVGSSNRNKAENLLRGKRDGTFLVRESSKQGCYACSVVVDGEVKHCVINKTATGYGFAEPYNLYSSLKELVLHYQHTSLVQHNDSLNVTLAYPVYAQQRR
(§2) The compound to be tested was added, at the desired final concentrations, to a mixture of PIP2 substrate and recombinant PI3 kinase α, δ or γ enzymes (Millipore), and the mixture incubated for 2 hr at RT. […] A stopping solution containing biotinylated PIP3 and the detection mix containing the GST tagged GRP1 pleckstrin homology (PH) domain and fluorophores were then added and the mixture was incubated at RT for 15-18 hr, prior to detection in a fluorescence microplate reader (Varioskan® Flash, ThermoFisher Scientific).

In the next series the target is recombinant PI3 kinase γ (Homo sapiens (Human), UniProt P48736). The description is as above. The series is classed as biochemical.
recombinant PI3 kinase γ, sequence (P48736 whole entry): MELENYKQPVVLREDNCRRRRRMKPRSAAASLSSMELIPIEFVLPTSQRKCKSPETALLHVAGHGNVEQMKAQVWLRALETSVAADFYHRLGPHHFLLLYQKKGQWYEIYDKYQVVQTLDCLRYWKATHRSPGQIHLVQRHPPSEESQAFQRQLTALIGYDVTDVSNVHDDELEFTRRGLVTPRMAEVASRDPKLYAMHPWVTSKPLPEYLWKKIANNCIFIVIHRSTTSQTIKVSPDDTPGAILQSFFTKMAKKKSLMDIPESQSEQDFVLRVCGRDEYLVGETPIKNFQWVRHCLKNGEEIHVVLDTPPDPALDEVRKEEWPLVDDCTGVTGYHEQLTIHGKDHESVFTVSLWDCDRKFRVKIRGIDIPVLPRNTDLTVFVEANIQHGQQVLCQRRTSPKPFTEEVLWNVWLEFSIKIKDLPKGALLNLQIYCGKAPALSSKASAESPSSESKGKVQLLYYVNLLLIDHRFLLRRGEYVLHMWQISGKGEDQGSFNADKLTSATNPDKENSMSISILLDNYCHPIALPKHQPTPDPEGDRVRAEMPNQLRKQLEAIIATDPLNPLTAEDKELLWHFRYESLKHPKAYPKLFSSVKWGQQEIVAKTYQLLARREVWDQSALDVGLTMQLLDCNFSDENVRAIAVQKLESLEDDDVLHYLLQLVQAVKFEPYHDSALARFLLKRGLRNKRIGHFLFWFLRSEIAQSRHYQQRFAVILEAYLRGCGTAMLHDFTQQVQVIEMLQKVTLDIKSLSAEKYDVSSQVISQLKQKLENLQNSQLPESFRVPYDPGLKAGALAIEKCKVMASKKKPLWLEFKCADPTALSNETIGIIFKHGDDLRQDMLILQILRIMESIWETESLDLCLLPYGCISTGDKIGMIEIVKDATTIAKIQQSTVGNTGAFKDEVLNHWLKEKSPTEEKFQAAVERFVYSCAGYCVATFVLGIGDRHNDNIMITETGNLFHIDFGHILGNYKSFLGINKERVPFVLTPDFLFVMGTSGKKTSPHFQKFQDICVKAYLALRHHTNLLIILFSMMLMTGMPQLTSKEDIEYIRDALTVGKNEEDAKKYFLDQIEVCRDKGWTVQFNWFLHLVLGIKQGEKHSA
Source text: as §1, §2

The target of the next series is recombinant PI3 kinase α (Homo sapiens (Human), UniProt P42336). The description is as above. Format: biochemical.
recombinant PI3 kinase α, sequence (P42336 whole entry): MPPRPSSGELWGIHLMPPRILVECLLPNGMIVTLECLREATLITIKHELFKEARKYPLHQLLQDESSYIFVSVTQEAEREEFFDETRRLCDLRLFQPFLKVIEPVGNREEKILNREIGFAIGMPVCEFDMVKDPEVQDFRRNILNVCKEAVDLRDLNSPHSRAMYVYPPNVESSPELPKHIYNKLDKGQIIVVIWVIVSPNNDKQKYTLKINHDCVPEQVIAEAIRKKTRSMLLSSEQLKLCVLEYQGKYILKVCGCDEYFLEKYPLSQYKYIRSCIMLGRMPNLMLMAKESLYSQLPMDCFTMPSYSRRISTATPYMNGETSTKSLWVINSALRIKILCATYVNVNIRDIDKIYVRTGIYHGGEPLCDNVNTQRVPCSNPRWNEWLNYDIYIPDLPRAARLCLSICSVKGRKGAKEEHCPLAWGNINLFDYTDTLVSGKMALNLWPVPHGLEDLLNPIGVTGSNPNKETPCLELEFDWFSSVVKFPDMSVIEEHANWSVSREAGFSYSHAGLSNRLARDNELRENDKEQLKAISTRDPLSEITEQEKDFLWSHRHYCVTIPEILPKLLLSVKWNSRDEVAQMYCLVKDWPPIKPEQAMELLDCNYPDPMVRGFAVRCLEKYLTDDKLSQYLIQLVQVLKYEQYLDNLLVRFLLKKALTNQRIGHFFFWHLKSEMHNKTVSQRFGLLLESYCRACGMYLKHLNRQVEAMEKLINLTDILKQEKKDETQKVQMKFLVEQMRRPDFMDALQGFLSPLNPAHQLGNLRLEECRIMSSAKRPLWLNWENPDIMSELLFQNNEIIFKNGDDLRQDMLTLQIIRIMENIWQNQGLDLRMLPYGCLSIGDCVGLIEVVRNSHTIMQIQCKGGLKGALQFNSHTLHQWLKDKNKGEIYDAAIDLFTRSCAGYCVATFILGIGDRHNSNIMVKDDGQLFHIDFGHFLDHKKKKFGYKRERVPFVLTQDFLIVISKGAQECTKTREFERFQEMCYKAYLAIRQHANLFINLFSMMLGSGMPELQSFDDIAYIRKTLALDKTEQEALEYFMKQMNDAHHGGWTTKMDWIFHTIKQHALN
recombinant PI3 kinase α, sequence (P27986 whole entry partner): as the sequence (P27986 whole entry partner) above
Source text: as §1, §2

Series [1] relates to H2O2 induced pAkt in D-U937 cells. Put plainly: PI3Kδ Cell Based Assay (H2O2 induced pAkt). The following applies: Homo sapiens. The method, then: As a means of assessing PI3K 6 activation in response to stimuli, the phosphorylation status of the protein, Akt, a downstream product of PI3K6, signaling was determined. Human monocytic cells (U937 cells), were differentiated to macrophage-type cells by incubation with phorbol myristate acetate (PMA; 100 ng/mL) for 48 to 72 hr. […] The cells were washed with buffer (PBS containing 0.1% Triton X-100) and were incubated with blocking solution (1% BSA in PBS) for 1 hr and were then re-washed with buffer and incubated overnight with either anti-pAkt antibody or anti-pan-Akt antibody (both from Cell Signaling Technology). […] This reaction was stopped by addition of 100 μL of 1N H2SO4 solution. […] The ratio of pAkt signal to total Akt signal was used to quantitate the extent of PI3K δ activation. […] The IC50 values were calculated from the concentration-response curves generated by the serial dilutions of the test compounds (Table 3 and Table 4).

Series [2] deals with PMA-differentiated U937 cells. Put plainly: MTT Assay (cell viability). The series is classed as cell-based, Human. The following applies: percentage loss of cell viability; for Cell Viability MTT Assay in D-U937 cells at 4 hr: 4 hr in 5% FCS; for Cell Viability MTT Assay in D-U937 cells at 24 hr: 24 hr in 10% FCS. The method, then:
PMA-differentiated U937 cells were pre-incubated with compound for 4 hr in 5% FCS or 10% FCS for 24 hr. The supernatant was replaced with 200 μL of new media and 10 μL of MTT stock solution (5 mg/ml) added to each well. After 1 hr incubation, the media were removed, 200 μL of DMSO added to each well and the plates were shaken lightly for 1 hr prior to reading the absorbance at 550 nm. The percentage loss of cell viability was calculated for each well relative to vehicle (0.5% DMSO)-treatment (Table 3).

Where [3] appears, read: activity range, read-out: PI3 Kinase Inhibition IC50 values at stated Isozyme δ.
Setting [4] is: activity range, read-out: PI3 Kinase Inhibition IC50 values at stated Isozyme γ.
Where [5] appears, read: activity range, read-out: PI3 Kinase Inhibition IC50 values at stated Isozyme α.
Where [6] appears, read: dU937, activity range, D-U937 cells, read-out: Cellular Activity IC50 values (H2O2 induced pAkt D-U937 Cells).

Like-named read-outs stand apart in the source and are kept apart here.

The IC50 is the concentration at which inhibition is half-maximal. Consider `COCCN(CCOC)C(=O)CCCC#Cc1cccc2nc(Cn3nc(-c4ccc(O)cc4)c4c(N)ncnc43)n(Cc3ccccc3Cl)c(=O)c12` [Example 82, 6-(2-((4-Amino-3-(4-hydroxyphenyl)-1H-pyrazolo[3,4-d]pyrimidin-1-yl)methyl)-3-(2-chlorobenzyl)-4-oxo-3,4-dihydroquinazolin-5-yl)-N,N-bis(2-methoxyethyl)hex-5-ynamide], for which the IC50 was less than 50 nM at recombinant PI3 kinase δ (setting [3]), less than 50 nM on recombinant PI3 kinase γ (setting [4]), 50 to 1000 nM at recombinant PI3 kinase α (setting [5]) and less than 10 nM in series [1] (setting [6]). Besides, in series [2], the “Cell Viability MTT Assay in D-U937 cells at 4 hr” value is listed as “− (− <30%)”. In series [2], the “Cell Viability MTT Assay in D-U937 cells at 24 hr” value is on record as “− (− <30%)”.

For the compound `Nc1ncnc2c1c(-c1ccc(O)cc1)nn2Cc1nc2cccc(C#CCCCC(=O)Nc3ccncc3)c2c(=O)n1Cc1ccccc1Cl` [Example 79, 6-(2-((4-Amino-3-(4-hydroxyphenyl)-1H-pyrazolo[3,4-d]pyrimidin-1-yl)methyl)-3-(2-chlorobenzyl)-4-oxo-3,4-dihydroquinazolin-5-yl)-N-(pyridin-4-yl)hex-5-ynamide], the IC50 at recombinant PI3 kinase δ (setting [3]) is less than 50 nM; at recombinant PI3 kinase γ (setting [4]) it was 50 to 1000 nM; at recombinant PI3 kinase α (setting [5]), 50 to 1000 nM; in series [1] (setting [6]) it was less than 10 nM. The “Cell Viability MTT Assay in D-U937 cells at 4 hr” value in series [2] is recorded as “− (− <30%)”. Moreover, the “Cell Viability MTT Assay in D-U937 cells at 24 hr” value in series [2] is on record as “− (− <30%)”.

Consider `Nc1ncnc2c1c(-c1ccc(O)cc1)nn2Cc1nc2cccc(C#CCC3CCCC3)c2c(=O)n1Cc1ccccc1Cl` [Example 39, 2-((4-Amino-3-(4-hydroxyphenyl)-1H-pyrazolo[3,4-d]pyrimidin-1-yl)methyl)-3-(2-chlorobenzyl)-5-(3-cyclopentylprop-1-ynyl)quinazolin-4(3H)-one], for which the IC50 at recombinant PI3 kinase δ (setting [3]) is less than 50 nM; at recombinant PI3 kinase γ (setting [4]), 50 to 1000 nM; on recombinant PI3 kinase α (setting [5]), less than 50 nM; in series [1] (setting [6]), less than 10 nM. Moreover, in series [2], the “Cell Viability MTT Assay in D-U937 cells at 4 hr” value was “− (− <30%)”. Besides, the “Cell Viability MTT Assay in D-U937 cells at 24 hr” value in series [2] is on record as “− (− <30%)”.

Consider `C#Cc1cccc2nc(Cn3nc(-c4ccc(O)cc4)c4c(N)ncnc43)n(Cc3cc(OC)ccc3F)c(=O)c12` [Example 42, 2-((4-Amino-3-(4-hydroxyphenyl)-1H-pyrazolo[3,4-d]pyrimidin-1-yl)methyl)-5-ethynyl-3-(2-fluoro-5-methoxybenzyl)quinazolin-4(3H)-one], for which the IC50 at recombinant PI3 kinase δ (setting [3]) is less than 50 nM; on recombinant PI3 kinase γ (setting [4]) it was 50 to 1000 nM; on recombinant PI3 kinase α (setting [5]) it was 50 to 1000 nM; in series [1] (setting [6]) it was less than 10 nM. Moreover, the “Cell Viability MTT Assay in D-U937 cells at 4 hr” value in series [2] is reported as “− (− <30%)”. Moreover, in series [2], the “Cell Viability MTT Assay in D-U937 cells at 24 hr” value was “− (− <30%)”.

As for `Nc1ncnc2c1c(-c1cccc(O)c1)nn2Cc1nc2cccc(C#CCCNC(=O)N3CCOCC3)c2c(=O)n1Cc1ccccc1Cl` [Example 72, N-(4-(2-((4-Amino-3-(3-hydroxyphenyl)-1H-pyrazolo[3,4-d]pyrimidin-1-yl)methyl)-3-(2-chlorobenzyl)-4-oxo-3,4-dihydroquinazolin-5-yl)but-3-yn-1-yl)morpholine-4-carboxamide], the IC50 on recombinant PI3 kinase δ (setting [3]) is less than 50 nM; on recombinant PI3 kinase γ (setting [4]) it was less than 50 nM; at recombinant PI3 kinase α (setting [5]), 50 to 1000 nM; in series [1] (setting [6]), less than 10 nM. In addition, the “Cell Viability MTT Assay in D-U937 cells at 4 hr” value in series [2] is recorded as “− (− <30%)”. Besides, the “Cell Viability MTT Assay in D-U937 cells at 24 hr” value in series [2] is reported as “− (− <30%)”.

Consider `Nc1ncnc2c1c(-c1cccc(O)c1)nn2Cc1nc2cccc(C#CCCC(=O)N3CCOCC3)c2c(=O)n1Cc1ccccc1Cl` [Example 56], for which the half-inhibitory concentration (IC50) on recombinant PI3 kinase δ (setting [3]) was less than 50 nM; on recombinant PI3 kinase γ (setting [4]) it was less than 50 nM; at recombinant PI3 kinase α (setting [5]), less than 50 nM; in series [1] (setting [6]) it was less than 10 nM. Also, the “Cell Viability MTT Assay in D-U937 cells at 4 hr” value in series [2] was “− (− <30%)”. Besides, the “Cell Viability MTT Assay in D-U937 cells at 24 hr” value in series [2] is “− (− <30%)”.

For `COCC#Cc1cccc2nc(Cn3nc(-c4cccc(O)c4)c4c(N)ncnc43)n(Cc3cccc(C(F)(F)F)c3)c(=O)c12` [Example 37, 2-((4-Amino-3-(3-hydroxyphenyl)-1H-pyrazolo[3,4-d]pyrimidin-1-yl)methyl)-5-(3-methoxyprop-1-ynyl)-3-(3-(trifluoromethyl)benzyl)quinazolin-4(3H)-one], the IC50 at recombinant PI3 kinase δ (setting [3]) is less than 50 nM; on recombinant PI3 kinase δ (read-out: PI3 Kinase Inhibition IC50 values at stated Isozyme (nM) δ), 12 nM; at recombinant PI3 kinase γ (setting [4]) it was more than 1000 nM; at recombinant PI3 kinase γ (read-out: PI3 Kinase Inhibition IC50 values at stated Isozyme (nM) γ), 1610 nM; on recombinant PI3 kinase α (setting [5]) it was 50 to 1000 nM; on recombinant PI3 kinase α (read-out: PI3 Kinase Inhibition IC50 values at stated Isozyme (nM) α), 474 nM. Also, the half-inhibitory concentration (IC50) was less than 10 nM in series [1] (setting [6]) and 0.33 nM in series [1] (dU937, read-out: Cellular Activity IC50 values (H2O2 induced pAkt (nM) D-U937 Cells)). In addition, the “Cell Viability MTT Assay in D-U937 cells at 4 hr” value in series [2] is on record as “− (− <30%)”. For the same compound, the “Cell Viability MTT Assay in D-U937 cells at 24 hr” value in series [2] was “− (− <30%)”.

For `Nc1ncnc2c1c(-c1ccc(O)cc1)nn2Cc1nc2cccc(C#CCOCc3ccccc3)c2c(=O)n1Cc1ccccc1Cl` [Example 40, 2-((4-Amino-3-(4-hydroxyphenyl)-1H-pyrazolo[3,4-d]pyrimidin-1-yl)methyl)-5-(3-(benzyloxy)prop-1-ynyl)-3-(2-chlorobenzyl)quinazolin-4(3H)-one], the IC50 at recombinant PI3 kinase δ (setting [3]) is less than 50 nM; at recombinant PI3 kinase γ (setting [4]), 50 to 1000 nM; at recombinant PI3 kinase α (setting [5]), 50 to 1000 nM; in series [1] (setting [6]), less than 10 nM. The “Cell Viability MTT Assay in D-U937 cells at 4 hr” value in series [2] is listed as “− (− <30%)”. For the same compound, in series [2], the “Cell Viability MTT Assay in D-U937 cells at 24 hr” value is on record as “− (− <30%)”.

For the compound `Nc1ncnc2c1c(-c1cccc(O)c1)nn2Cc1nc2cccc(C#CCOCCN3CCOCC3)c2c(=O)n1Cc1ccccc1Cl` [Example 8, 2-((4-Amino-3-(3-hydroxyphenyl)-1H-pyrazolo[3,4-d]pyrimidin-1-yl)methyl)-3-(2-chlorobenzyl)-5-(3-(2-morpholinoethoxy)prop-1-ynyl)quinazolin-4(3H)-one], the IC50 on recombinant PI3 kinase δ (setting [3]) was less than 50 nM; on recombinant PI3 kinase γ (setting [4]), 50 to 1000 nM; on recombinant PI3 kinase α (setting [5]), 50 to 1000 nM; in series [1] (dU937, read-out: Cellular Activity IC50 values (H2O2 induced pAkt D-U937 Cells)), less than 10 nM. Also, the “Cell Viability MTT Assay in D-U937 cells at 4 hr” value in series [2] is on record as “− (− <30%)”. Also, the “Cell Viability MTT Assay in D-U937 cells at 24 hr” value in series [2] is given as “− (− <30%)”.

Turning to `COc1cc(Cn2c(Cn3nc(-c4ccc(O)cc4)c4c(N)ncnc43)nc3cccc(C#CCCCC(=O)N4CCOCC4)c3c2=O)cc(C(F)(F)F)c1` [Example 62, 2-((4-Amino-3-(4-hydroxyphenyl)-1H-pyrazolo[3,4-d]pyrimidin-1-yl)methyl)-3-(3-methoxy-5-(trifluoromethyl)benzyl)-5-(6-morpholino-6-oxohex-1-yn-1-yl)quinazolin-4(3H)-one], the IC50 was less than 50 nM on recombinant PI3 kinase δ (setting [3]), less than 50 nM on recombinant PI3 kinase γ (setting [4]), 50 to 1000 nM on recombinant PI3 kinase α (setting [5]) and less than 10 nM in series [1] (setting [6]). The “Cell Viability MTT Assay in D-U937 cells at 4 hr” value in series [2] is given as “− (− <30%)”. In addition, in series [2], the “Cell Viability MTT Assay in D-U937 cells at 24 hr” value was “− (− <30%)”.

Turning to `COc1cccc(Cn2c(Cn3nc(-c4ccc(O)cc4)c4c(N)ncnc43)nc3cccc(C#CCCCC(=O)N4CCOCC4)c3c2=O)c1F` [Example 64, 2-((4-Amino-3-(4-hydroxyphenyl)-1H-pyrazolo[3,4-d]pyrimidin-1-yl)methyl)-3-(2-fluoro-3-methoxybenzyl)-5-(6-morpholino-6-oxohex-1-yn-1-yl)quinazolin-4(3H)-one], the IC50 is less than 50 nM on recombinant PI3 kinase δ (setting [3]), less than 50 nM at recombinant PI3 kinase γ (setting [4]), 50 to 1000 nM at recombinant PI3 kinase α (setting [5]) and less than 10 nM in series [1] (setting [6]). The “Cell Viability MTT Assay in D-U937 cells at 4 hr” value in series [2] is on record as “− (− <30%)”. Also, the “Cell Viability MTT Assay in D-U937 cells at 24 hr” value in series [2] is given as “− (− <30%)”.
